Results reported in PMC3716696 (PLoS ONE, 2013).
Entries after “also recorded” stand apart in the source; their conditions may differ. One block for each molecule: values may come before it. Non-standard residues stand in square brackets, D forms with d. Residues, ends and D or L forms follow the SMILES beside them. *: point of attachment. Sta = CC(C)C[C@H](N)[C@@H](O)CC(=O)O; Isovaleryl = CC(C)CC(=O)*

Key:
[1] = system: SP-degrading activity of spinal cord membrane lysates; test: SP degradation in spinal cord membrane lysates with general enzyme class inhibitors; format: biochemical, mouse; conditions: membrane lysate 1 mg/mL, 30 min pre-incubation 37°C, SP 100 μM, 1 h 37°C; 1 mM o-phenanthroline, 10 μM pepstatin A, 1 mM PMSF; LC-MS, N = 4
Protocol: The membrane fraction of spinal cord lysates (1 mg/mL) were pre-incubated at 37°C for 30 minutes separately with each of the following inhibitors (N = 4): 10 μM E-64 (cysteine protease), 1 mM iodoacetamide (cysteine protease), 1 mM o-phenanthroline (metalloprotease), 10 μM pepstatin A (aspartyl protease), 1 mM phenylmethylsulfonyl fluoride (PMSF, serine protease), 1 mM diisopropylfluorophosphate (serine protease), and vehicle (PBS with DMSO for 5% DMSO final concentration in reaction). After the pre-incubation with each inhibitor, SP was added to 100 μM final concentration. The reactions proceeded at 37°C for 1 h. Dried samples were dissolved in 0.1% formic acid (aq) and analyzed by LC-MS/MS for SP-degrading activity (i.e. formation of SP1–7 and SP1–9) using the method outlined in “MALDI-TOF MS and LC-MS/MS analysis of in vitro peptides” section.
(§1) For LC-MS analysis, an Agilent 6220 LC-ESI-TOF instrument was used in the positive mode. A Bio-Bond C18 (5 μm, 150×2.1 mm) column was used together with a precolumn (C18, 3.5 μm, 2×20 mm). Following injection of 25 μL of 5 μM solutions, the samples were trapped at an isocratic flow rate of 0.1 ml/min for five minutes and eluted at a flow rate of 0.25 mL/min via a mobile phase gradient of 2–100% B in 40 min (Mobile Phase A: 0.1% formic acid in water, Mobile Phase B: 0.1% formic acid in acetonitrile). MS analysis was performed with an electrospray ionization (ESI) source. The capillary voltage was set at 4.0 kV and the fragmentor voltage to 100 V. The drying gas temperature was 350°C, the drying gas flow rate was 10 L/min, and the nebulizer pressure was 45 psi. Data was collected in the centroid mode using a mass range of 100–500 Da. The peptides were analyzed by mass extraction of the +3 charge state.

[2] = system: SP-degrading / SP1–9-producing activity of spinal cord membrane lysates; test: SP degradation in spinal cord membrane lysates with metalloprotease inhibitors; format: biochemical, mouse; conditions: membrane lysate 1 mg/mL, 30 min pre-incubation 37°C, SP 100 μM, 1 h 37°C, LC-MS, N = 4; for Inhibition of SP degradation (in words): inhibitor 100 μM (TIMP2 4 μM)
Protocol: All inhibitors were present at 100 μM except for TIMP2, which was present at 4 μM. After the pre-incubation with each inhibitor, either SP or SP1–9 was added to 100 μM final concentration. The reactions proceeded at 37°C for 1 h. Dried samples were dissolved in 0.1% formic acid (aq) and analyzed by LC-MS/MS for SP or SP1–9-degrading activity.
as §1

ACE = conditions: cited from earlier work
MMP9 = conditions: cited from earlier work
NEP [3] = conditions: cited from earlier work
[4] = membrane fraction of mouse spinal cord lysates (1 mg/mL); conditions: mouse (C57BL/6), 37°C, up to 240 min
[5] = cell lysates with synthetic peptide; synthetic peptide introduced into a living tissue (pseudo-in vivo); conditions: cited from earlier work
[6] = soluble fraction of mouse spinal cord lysates (1 mg/mL); conditions: mouse (C57BL/6), 37°C, up to 240 min
Pitrilysin = conditions: cited from earlier work
ECE-2 = conditions: cited from earlier work
ECE-1 = conditions: cited from earlier work
[7] = membrane fraction of spinal cord lysates (1 mg/mL) with class-selective inhibitors; conditions: mouse, 37°C, up to 1 h
[8] = membrane fraction of spinal cord lysates (1 mg/mL) with metalloprotease inhibitors; conditions: mouse, 37°C, up to 1 h
Meprin 1A = conditions: cited from earlier work
[9] = mouse spinal cord tissue (endogenous peptides, boiled and extracted); conditions: mouse (C57BL/6)
[10] = membrane fraction of spinal cord lysates (1 mg/mL); conditions: mouse (C57BL/6), 37°C, up to 1 h
[11] = N-terminal SP fragment formation in spinal cord soluble and membrane lysates; format: in vitro ADME, mouse; conditions: for Degradation product of SP1–9 in spinal cord lysates: SP1–9 100 μM incubated in spinal cord lysate, 37°C, 1 h, LC-MS (Fig. S3)
Protocol: Three mouse spinal cords were dounce homogenized in 1.1 mL phosphate buffered saline (PBS) on ice and then sonicated for 15 s at 4°C. Tissue debris was separated by centrifuging the sample at 5,000×g for 20 min at 4°C. The soluble fraction was collected after ultracentrifugation of the sample at 55,000×g for 1 h at 4°C. The membrane pellet that remained was washed 3x with 600 μL PBS. The pellet was then suspended in 100 μL PBS by sonication for 5 s at 4°C. The sample was ultracentrifugation at 55,000×g for 1 h at 4°C and the supernatant was separated as a wash membrane sample. The pellet was suspended in 100 μL of 1 mM sodium deoxycholate (Alfa Aesar) by sonication for 5 s at 4°C then stirred for 30 min at 4°C. Ultracentrifugation of the sample at 55,000×g for 1 h at 4°C separated the supernatant as a 1 mM deoxycholate-solubilized membrane fraction. The remaining pellet was washed 3x with 600 μL 1 mM deoxycholate solution. The pellet was subsequently suspended in 4, 12, and 24 mM deoxycholate following the same cycle. The final pellet was suspended in 100 μL PBS. The protein content in the soluble and membrane lysates was quantified by the Bradford assay. […] The reactions were quenched with neat formic acid and speed vac dried. The samples were dissolved in 0.1% formic acid (aq) and analyzed by MALDI-TOF MS for SP-degrading activity (i.e. formation of SP1–7 and SP1–9) using the method outlined in “MALDI-TOF MS and LC-MS/MS analysis of in vitro peptides” section. […]
MALDI-TOF MS was performed with α-cyano-4-hydroxycinnamic acid as the matrix using 2 μL of a 50 μM reconstituted degradation reaction solution (based on initial SP quantities). […]
To determine the candidate proteolytic pathway or pathways for SP degradation in the spinal cord, we separated tissue lysates from mouse spinal cords into membrane and soluble fractions, incubated them with full-length SP for varying lengths of time (15, 60, 240 min) and then analyzed the quenched reactions by MALDI mass spectrometry to identify any SP fragments that had been produced. […]

[12] = in vivo; cited from earlier work
NEP [13] = test: SP degradation and SP levels in WT and Nep–/– spinal cord; format: in vitro ADME, mouse; conditions: 1 mg/mL WT and Nep–/– spinal cord membrane lysates, LC-MS/MS
Protocol: The levels of SP in WT and Nep^–/– mice spinal cord tissue (N = 4) were compared by IDMS using Top 6 MS/MS as described previously. The degradation of SP was compared in 1 mg/mL WT and Nep^–/– mice spinal cord membrane lysates using LC-MS/MS analysis following the above method.

Molecule: O=S(=O)(F)Cc1ccccc1 [PMSF, phenylmethylsulfonyl fluoride]
- Effect on SP1–7 production [1]: regulate SP1-7 production
- Inhibition of SP1–9 production [1]: small effect
- Inhibition of SP degradation (SP levels vs vehicle) [1]: Modest increases

Molecule: CC(C)C[C@H](NP(=O)(O)O[C@@H]1O[C@@H](C)[C@H](O)[C@@H](O)[C@H]1O)C(=O)N[C@@H](Cc1c[nH]c2ccccc12)C(=O)O [phosphoramidon]
- Inhibition of SP degradation (in words) [2]: could inhibit
- Inhibition of SP1–9 production (in words) ([2]; inhibitor 100 μM): could inhibit
- Inhibition of SP1–9 production (in words) ([2]; inhibitor 100 μM, listed as Phosphoramidon): slows SP1–9 production

- cleaved bond [4]: G9-L10, major
- cleaved bond [7]: G9-L10, major
- fragment found [7]: SP1–7
- cleaved bond [8]: G9-L10, major
- cleaved bond [9]: G9-L10, major
- fragment found [9]: SP1–7, major
Molecule: H2N-RPKPQQFFGLM-CONH2
- cleaved bond (ACE): G9-L10
- cleaved bond (MMP9): G9-L10
- cleaved bond (NEP [3]): G9-L10
- fragment found [4]: SP1–10; also recorded: SP1–8; also recorded: SP1–7; also recorded: SP3-11
- fragment found [5]: SP1–9; also recorded: SP1–8; also recorded: SP1–7; also recorded: SP5–11; also recorded: SP6–11; also recorded: SP7–11; also recorded: SP8–11
- not cleaved [6]: No discernable fragments appeared in the soluble fraction
- cleaved bond (Pitrilysin): G9-L10
- cleaved bond (ECE-2): G9-L10
- cleaved bond (ECE-1): G9-L10
- cleaved bond (Meprin 1A): G9-L10

Molecule: CCCCC[C@H](CC(=O)NO)C(=O)N[C@H](C(=O)N1CCC[C@H]1CO)C(C)C [actinonin]
- Inhibition of SP degradation (in words) [2]: could inhibit
- Inhibition of SP1–9 production (in words) ([2]; inhibitor 100 μM): could inhibit

- fragment found [10]: SP1–7
Molecule: H-RPKPQQFFG-OH

- Effect on SP1–7 production [1]: regulate SP1-7 production
Molecule: c1cnc2c(c1)ccc1cccnc12 [O-phenanthroline]
- Inhibition of SP1–9 production [1]: most potent inhibitor of SP1–9 production; also recorded: strongest inhibitor of SP1–9 production
- Inhibition of SP degradation (SP levels vs vehicle) [1]: most effective compound at inhibiting SP degradation; also recorded: twice as high as the vehicle control

- Degradation product of SP1–9 in spinal cord lysates [11]: SP1–7 was produced
- Degradation product of SP1–9 in spinal cord lysates ([11]; listed as SP 1–9): SP1–7 is produced
Molecule: N=C(N)NCCC[C@H](N)C(=O)N1CCC[C@H]1C(=O)N[C@@H](CCCCN)C(=O)N1CCC[C@H]1C(=O)N[C@@H](CCC(N)=O)C(=O)N[C@@H](CCC(N)=O)C(=O)N[C@@H](Cc1ccccc1)C(=O)N[C@@H](Cc1ccccc1)C(=O)NCC(=O)O [SP1–9] (H-RPKPQQFFG-OH)

Molecule: CNC(=O)[C@H](Cc1c[nH]c2ccccc12)NC(=O)[C@@H](CC(=O)NO)CC(C)C [GM6001]
- Bioavailability [12]: bioavailable
- Inhibition of SP degradation (in words) [2]: most effective compound at preventing SP degradation; also recorded: least amount of SP degradation
- Decrease in SP1–9 production compared to vehicle ([2]; inhibitor 100 μM): greater than 10 fold
- Increase in SP levels compared to vehicle ([2]; inhibitor 100 μM): ~2 fold
- Inhibition of SP1–9 production (in words) ([2]; inhibitor 100 μM): best inhibitor of SP1–9 production; also recorded: strongly inhibited; also recorded: potently blocks

- SP fragments formed in soluble fraction of spinal cord lysate ([11]; pH 7.34): No discernable fragments
- SP degradation in NEP+/+ vs NEP–/– spinal cord lysates (NEP [13]): no significant difference
Molecule: CSCC[C@H](NC(=O)[C@H](CC(C)C)NC(=O)CNC(=O)[C@H](Cc1ccccc1)NC(=O)[C@H](Cc1ccccc1)NC(=O)[C@H](CCC(N)=O)NC(=O)[C@H](CCC(N)=O)NC(=O)[C@@H]1CCCN1C(=O)[C@H](CCCCN)NC(=O)[C@@H]1CCCN1C(=O)[C@@H](N)CCCN=C(N)N)C(N)=O [SP, Substance P]

- Effect on SP1–7 production [1]: regulate SP1-7 production
- Inhibition of SP1–9 production [1]: small effect
- Inhibition of SP degradation (SP levels vs vehicle) [1]: Modest increases
Molecule: CC(C)CC(=O)N[C@H](C(=O)N[C@H](C(=O)N[C@@H](CC(C)C)[C@@H](O)CC(=O)N[C@@H](C)C(=O)N[C@@H](CC(C)C)[C@@H](O)CC(=O)O)C(C)C)C(C)C [pepstatin A] (Isovaleryl-VV[Sta]A[Sta]-OH)
